Test results: US20210285949A1 (priority 2020, published 2021)
Like-named read-outs stand apart in the source and are kept apart here.

Columns and labels:
[1] = tested on: patients with septic shock and elevated adrenomedullin; assay: AdrenOSS-2 phase II clinical trial; format: in vivo, human
Source text: AdrenOSS-2 is a double-blind, placebo-controlled, randomized, multicenter, proof of concept and dose-finding phase II clinical trial to investigate the safety, tolerability and efficacy of the N-terminal ADM antibody named Adrecizumab in patients with septic shock and elevated adrenomedullin (Geven et al. BMJ Open 2019; 9:e024475). In total, 301 patients with septic shock and bio-ADM concentration >70 pg/mL were randomized (2:1:1) to treatment with a single intravenous infusion over approximately 1 hour with either placebo (n=152), adrecizumab […] (n=72) or Adrecizumab […] (n=77). All-cause mortality within 28 (90) days after inclusion was 25.8% (34.8%). Mean age was 68.4 years and 61% were male. For the per protocol analysis, n=294 patients remained eligible, and 14-day all-cause mortality rate was 18.5%.
Furthermore, different subpopulations of the cohort were analyzed. Main outcomes were 28-day mortality, change in Horovitz Index (PaO2/FiO2) (at 24 h/48 h/72 h), change in SOFA score (at 24 h/48 h/72 h) or change in respiratory SOFA score component (also based on PaO2/FiO2) (at 24 h/48 h/72 h). All p-values are 2-sided and a p-value of 0.20 should be considered significant.

[2] = tested on: mice with CLP-induced sepsis; details: pre-treatment, cited from earlier work
endotoxemic rats = details: pre-treatment; cited from earlier work
[3] = cited from earlier work
[4] = tested on: extreme-critically ill COVID-19 patients with acute respiratory distress syndrome (ARDS); details: cited from earlier work

For “Adrecizumab: humanized N-terminal anti-ADM monoclonal antibody, heavy chain SEQ ID NO: 35, light chain SEQ ID NO: 36”, the “change in Horovitz-Index” value ([1]; Horovitz-Index <170 and mechanical ventilation (n=48), after 24 hours (0.48)) was “trended to be higher”, the “change in SOFA score vs placebo” value ([1]; Horovitz-Index <170 and mechanical ventilation (n=48), after 24 hours, p=0.032) was “significantly lower” and the “change in SOFA score vs placebo” value ([1]; Horovitz-Index <170 and mechanical ventilation (n=48), after 48 hours, p=0.012) was “significantly lower”. The “change in Horovitz-Index, mean increase” value ([1]; Horovitz-Index <170 and mechanical ventilation (n=48), after 48 hours, p=0.09) was 64.2, the “change in SOFA score vs placebo” value ([1]; Horovitz-Index <170 and mechanical ventilation (n=48), after 72 hours, p=0.028) was “significantly lower” and the “change in Horovitz-Index, mean increase” value ([1]; Horovitz-Index <170 and mechanical ventilation (n=48), after 72 hours, p=0.11) was 66.4. For the same substance, the “28-day mortality vs placebo” value ([1]; Horovitz-Index <170 and mechanical ventilation at baseline (n=48), p=0.37) was “trended to be lower”, the “change in SOFA score vs placebo” value ([1]; mechanical ventilation at baseline (n=161), after 24 hours, p=0.002) was “significantly lower” and the “change in respiratory SOFA score vs placebo” value ([1]; mechanical ventilation at baseline (n=161), after 24 hours, p=0.021) was “significantly lower”. The “change in Horovitz-Index” value ([1]; mechanical ventilation at baseline (n=161), after 48 hours, p=0.007) was “significantly higher”, the “change in respiratory SOFA score vs placebo” value ([1]; mechanical ventilation at baseline (n=161), after 48 hours, p=0.011) was “significantly lower” and the “change in SOFA score vs placebo” value ([1]; mechanical ventilation at baseline (n=161), after 48 hours, p=0.109) was “significantly lower”. For the same substance, the “change in respiratory SOFA score vs placebo” value ([1]; mechanical ventilation at baseline (n=161), after 72 hours, p=0.066) was “significantly lower”, the “change in Horovitz-Index” value ([1]; mechanical ventilation at baseline (n=161), after 72 hours, p=0.087) was “significantly higher” and the “change in SOFA score vs placebo” value ([1]; mechanical ventilation at baseline (n=161), after 72 hours, p=0.31) was “trended to be lower”. For the same substance, the “change in Horovitz-Index, mean increase” value ([1]; mechanical ventilation at baseline (n=161), at 24 hours, p=0.155) was 56.2, the “28-day mortality vs placebo” value ([1]; mechanical ventilation at baseline (n=161), p=0.157) was “significantly lower” and the “change in SOFA score vs placebo” value ([1]; shock patients with ALI/ARDS (n=80), after 24 hours, p=0.005) was “significantly lower”. The “change in respiratory SOFA score vs placebo” value ([1]; shock patients with ALI/ARDS (n=80), after 24 hours, p=0.26) was “trended to be lower”, the “change in SOFA score vs placebo” value ([1]; shock patients with ALI/ARDS (n=80), after 48 hours, p=0.025) was “significantly lower” and the “change in respiratory SOFA score vs placebo” value ([1]; shock patients with ALI/ARDS (n=80), after 48 hours, p=0.09) was “significantly lower”. The “change in SOFA score vs placebo” value ([1]; shock patients with ALI/ARDS (n=80), after 72 hours, p=0.38) was “trended to be lower”, the renal vascular leakage ([2]; mice with CLP-induced sepsis) was “attenuated” and the 7-day survival ([2]; repeated dose administration (control 0%)) was 40%. For the same substance, the 7-day survival ([2]; single dose administration (control 10%)) was 50%, the renal vascular leakage (endotoxemic rats) was “attenuated” and the “circulating ADM following administration” value ([3]; animal and human data) was “potent, dose-dependent increase”. For the same substance, the “safety and tolerability, serious adverse events” value ([3]; phase I study) was “no serious adverse events were observed”, the mortality ([4]; compared with mortality calculated by the SOFA score) was “lower than expected” and the PaO2/FiO2 ([4]; single dose, within 12 days) was “increased”. For the same substance, the “SOFA score and disease severity score” value ([4]; single dose, within 12 days) was “decreased in five out of the seven surviving patients” and the “inflammatory parameters C-reactive protein, procalcitonin, and interleukin-6” value ([4]; single dose) was “decreased”.
